From US20030228281A1, “Use of mutant herpes viruses and anticancer agents in the treatment of cancer” (priority 2000, published 2003)

Columns and labels:
[1] = test system: G207; test: Effect of HU and FUdR on G207 replication in HCT8 cells; format: cell-based, herpes simplex virus (HSV) type 1
Experimental: FIG. 4 depicts the results of experiments showing the effects of FUdR and HU on viral replication. HCT8 cells were infected with 2 pfu of G207 per cell. After adsorption of 1 hour at 37° C. inoculum was removed, cells were washed with PBS, and medium containing 10 nM FUdR or control medium without FUdR was added. At 8 hours pi, infected cells in presence and absence of FUdR were exposed to 1 mM HU. At 36 hours pi cells and supernatant were harvested and lysates were prepared by three cycles of freezing and thawing. Viral titers (A) and β-galactosidase activity (B) of the lysate were determined. All assays were performed in triplicates for each condition (avg ± SEM).
Vero cultures were carried for at least one subculture in E-MEM, 2 mM L-glutamine, 10% FCS. Cultures were plated at a density of 1×10^6 cells per well of 6-well plates and incubated at 37° C. in 5% CO2 in air in a humidified incubator. The following day, cultures were washed 2× with PBS, and serial dilutions of cell lysates (0.8 ml/well) were adsorbed onto triplicate dishes for 4 hours at 37° C. Cell lysates were prepared by 4 freeze-thaw cycles. Following adsorption, inoculum was removed, and cultures were overlaid with agar containing medium. Cultures were stained with neutral red 2 days post-inoculation, and plaque formation was assessed the next day.

[2] = test system: β-galactosidase expression; test: β-galactosidase activity (lacZ reporter gene in G207) in infected cells; format: cell-based; details: HCT8, 2 pfu G207 per cell, 10 nM FUdR, 1 mM HU from 8 hours pi, 36 hours pi
Experimental: FIG. 2 depicts the results of experiments showing the influence of FUdR on β galactosidase expression following infection with G207. Cells (2×10^4) were plated in 24-well plates, and were infected with G207 at an MOI of 0.01 in presence (10 nM, oblique; 100 nM, black) and absence (white) of FUdR. At day 3 following infection, cells were lysed and total β-galactosidase activity of cell lysates was measured (A). Cell counts for each condition were determined in additional wells by trypan blue exclusion and specific activity was calculated by referring total activity to viable cell number (B). All assays were performed in triplicates (avg ± SEM). For lacZ staining 3×10^5 cells were plated onto 25 cm^2 flasks. Twelve hours later cells were infected with G207 in the presence and absence of FUdR under the same conditions as described above. At day 3 pi, cytospin slides were prepared and stained with X-gal for lacZ expression.
FIG. 4 depicts the results of experiments showing the effects of FUdR and HU on viral replication. […] Viral titers (A) and β-galactosidase activity (B) of the lysate were determined. […]
Activity of β-galactosidase was determined by monitoring the conversion of o-nitrophenyl galactoside (ONPG) to o-nitrophenol and galactose (β-Galactosidase Reporter Assay, Pierce, Rockford, Ill.). […] The reaction rate was determined by spectrophotometric measurement of o-nitrophenol at λ=405 nm. […]

SMILES: NC(=O)NO [HU, hydroxyurea]
- Viral titer, cells treated with HU and FUdR ([1]; 1 mM HU and 10 nM FUdR, 36 hours pi): 2.1±0.5×10^4 pfu
- Viral titer, cells treated with HU alone ([1]; 1 mM HU from 8 hours pi, 36 hours pi): 1.9±0.5×10^4 pfu
- Suppression of viral replication ([1]; 1 mM HU, HCT8 cells): 90%
- Effect on β-galactosidase expression [2]: neither FUdR nor HU had significant effects
